Bridge positions count the residues as written; N and C are the ends. Square brackets hold non-standard residues; d marks the D form. Peptide text beside a SMILES is read from it. * marks the point of attachment. Phe(4-COOH) = N[C@@H](Cc1ccc(C(=O)O)cc1)C(=O)O; Bip = N[C@@H](Cc1ccc(-c2ccccc2)cc1)C(=O)O; Phe(3-Me) = Cc1cccc(C[C@H](N)C(=O)O)c1; h4Pal = N[C@@H](CCc1ccncc1)C(=O)O; 4Pal = N[C@@H](Cc1ccncc1)C(=O)O; Cit = NC(=O)NCCC[C@H](N)C(=O)O; Carboxymethyl = O=C(O)C*; NMeA = CN[C@@H](C)C(=O)O; Dab = NCC[C@H](N)C(=O)O; Dap = NC[C@H](N)C(=O)O
The compounds below were run against T1, PE-labeled human PD-L1-Ig binding to Jurkat cell line over-expressing human PD-1 (Jurkat-PD-1) (Homo sapiens, UniProt Q15116) (assay: Jurkat-PD-1 Cell Binding High-Content Screening Assay (CBA): Method 1). Conditions: Jurkat-hPD-1 cells, PE-labeled PD-L1-Ig 20 nM final; read-out: Jurkat HPDL1 PD1 IC50 (uM) (Method 1).
T1 construct: expressed in transfected cells; host or cells: Jurkat
T1 sequence (Q15116 25-288): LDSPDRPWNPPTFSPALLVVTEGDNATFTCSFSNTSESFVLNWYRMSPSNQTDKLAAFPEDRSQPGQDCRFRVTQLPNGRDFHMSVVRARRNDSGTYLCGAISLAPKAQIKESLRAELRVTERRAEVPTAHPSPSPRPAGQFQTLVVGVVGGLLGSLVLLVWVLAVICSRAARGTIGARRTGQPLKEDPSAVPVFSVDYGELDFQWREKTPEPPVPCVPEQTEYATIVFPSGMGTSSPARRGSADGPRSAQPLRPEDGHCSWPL

| IC50 [µM] | Compound |
| --- | --- |
| 0.01 | Cc1cccc(C[C@@H]2NC(=O)[C@H](CC(=O)O)NC(=O)[C@H](CCc3ccncc3)NC(=O)[C@H](CN)NC(=O)CSC[C@@H](C(=O)N[C@@H](C)C(N)=O)NC(=O)[C@H]([C@@H](C)O)NC(=O)[C@H](C(C)C)NC(=O)[C@H](CC(C)C)NC(=O)[C@H](CCN)NC(=O)[C@@H](CC(C)C)NC(=O)[C@H](C)N(C)C(=O)[C@H](CCCNC(N)=O)NC(=O)[C@H](Cc3ccc(-c4ccccc4)cc3)NC(=O)[C@H](C(C)C)NC2=O)c1 [Compound 1547] ({CH2CO}-[Dap][h4Pal]D[Phe(3-Me)]V[Bip][Cit][NMeA][dL][Dab]LVTCA-NH2; thioether N-14) |
| 0.01 | CC(C)C[C@@H]1NC(=O)[C@H](Cc2c[nH]c3ccccc23)NC(=O)[C@H](CC(=O)O)NC(=O)[C@H](Cc2ccc(C(=O)O)cc2)NC(=O)[C@H](Cc2ccc(OCC(=O)O)cc2)NC(=O)CSC[C@@H](C(=O)NCC(N)=O)NC(=O)[C@H](CO)NC(=O)[C@H](C(C)C)NC(=O)[C@H](CC(C)C)NC(=O)[C@H](CC(N)=O)NC(=O)[C@@H](CC(C)C)NC(=O)[C@H](C)N(C)C(=O)[C@H](C(C)C)NC(=O)[C@H](Cc2ccc(-c3ccccc3)cc2)NC1=O [Compound 1548] ({CH2CO}-Y(Carboxymethyl)[Phe(4-COOH)]DWL[Bip]V[NMeA][dL]NLVSCG-NH2; thioether N-14) |
| 0.04 | CC(C)C[C@@H]1NC(=O)[C@H](Cc2c[nH]c3ccccc23)NC(=O)[C@H](CC(=O)O)NC(=O)[C@H](Cc2ccncc2)NC(=O)[C@H](CN)NC(=O)CSC[C@@H](C(=O)NCC(N)=O)NC(=O)[C@H](CO)NC(=O)[C@H](C(C)C)NC(=O)[C@H](CC(C)C)NC(=O)[C@H](CC(N)=O)NC(=O)[C@@H](CC(C)C)NC(=O)[C@H](C)N(C)C(=O)[C@H](C(C)C)NC(=O)[C@H](Cc2ccc(-c3ccccc3)cc2)NC1=O [Compound 1549] ({CH2CO}-[Dap][4Pal]DWL[Bip]V[NMeA][dL]NLVSCG-NH2; thioether N-14) |
| 0.01 | CC(C)C[C@@H]1NC(=O)[C@H](Cc2c[nH]c3ccccc23)NC(=O)[C@H](CC(=O)O)NC(=O)[C@H](Cc2ccc(OCC(=O)O)cc2)NC(=O)[C@H](Cc2ccc(OCC(=O)O)cc2)NC(=O)CSC[C@@H](C(=O)NCC(N)=O)NC(=O)[C@H](CO)NC(=O)[C@H](C(C)C)NC(=O)[C@H](CC(C)C)NC(=O)[C@H](CC(N)=O)NC(=O)[C@@H](CC(C)C)NC(=O)[C@H](C)N(C)C(=O)[C@H](C(C)C)NC(=O)[C@H](Cc2ccc(-c3ccccc3)cc2)NC1=O [Compound 1550] ({CH2CO}-Y(Carboxymethyl)Y(Carboxymethyl)DWL[Bip]V[NMeA][dL]NLVSCG-NH2; thioether N-14) |
| 0.01 | CC(C)C[C@@H]1NC(=O)[C@H](Cc2c[nH]c3ccccc23)NC(=O)[C@H](CC(=O)O)NC(=O)[C@H](Cc2ccc(OCC(=O)O)cc2)NC(=O)[C@H](Cc2ccncc2)NC(=O)CSC[C@@H](C(=O)NCC(N)=O)NC(=O)[C@H](CO)NC(=O)[C@H](C(C)C)NC(=O)[C@H](CC(C)C)NC(=O)[C@H](CC(N)=O)NC(=O)[C@@H](CC(C)C)NC(=O)[C@H](C)N(C)C(=O)[C@H](C(C)C)NC(=O)[C@H](Cc2ccc(-c3ccccc3)cc2)NC1=O [Compound 1551] ({CH2CO}-[4Pal]Y(Carboxymethyl)DWL[Bip]V[NMeA][dL]NLVSCG-NH2; thioether N-14) |
| 0.01 | Cc1cccc(C[C@@H]2NC(=O)[C@H](CC(=O)O)NC(=O)[C@H](Cc3ccc(OCC(=O)O)cc3)NC(=O)[C@H](Cc3ccncc3)NC(=O)CSC[C@@H](C(=O)NCC(N)=O)NC(=O)[C@H](CO)NC(=O)[C@H](C(C)C)NC(=O)[C@H](CC(C)C)NC(=O)[C@H](CC(N)=O)NC(=O)[C@@H](CC(C)C)NC(=O)[C@H](C)N(C)C(=O)[C@H](C(C)C)NC(=O)[C@H](Cc3ccc(-c4ccccc4)cc3)NC(=O)[C@H](CC(C)C)NC2=O)c1 [Compound 1557] ({CH2CO}-[4Pal]Y(Carboxymethyl)D[Phe(3-Me)]L[Bip]V[NMeA][dL]NLVSCG-NH2; thioether N-14) |
| 0.02 | CC(C)C[C@@H]1NC(=O)[C@H](Cc2c[nH]c3ccccc23)NC(=O)[C@H](CC(=O)O)NC(=O)[C@H](Cc2ccc(C(=O)O)cc2)NC(=O)[C@H](Cc2ccc(OCC(=O)O)cc2)NC(=O)CSC[C@@H](C(=O)N[C@@H](C)C(N)=O)NC(=O)[C@H](CO)NC(=O)[C@H](C(C)C)NC(=O)[C@H](CC(C)C)NC(=O)[C@H](CC(N)=O)NC(=O)[C@@H](C)NC(=O)[C@H](C)N(C)C(=O)[C@H](C(C)C)NC(=O)[C@H](Cc2ccc(-c3ccccc3)cc2)NC1=O [Compound 1560] ({CH2CO}-Y(Carboxymethyl)[Phe(4-COOH)]DWL[Bip]V[NMeA][dA]NLVSCA-NH2; thioether N-14) |
| 0.03 | CC(C)C[C@@H]1NC(=O)[C@H](Cc2c[nH]c3ccccc23)NC(=O)[C@H](CC(=O)O)NC(=O)[C@H](Cc2ccncc2)NC(=O)[C@H](CN)NC(=O)CSC[C@@H](C(=O)N[C@@H](C)C(N)=O)NC(=O)[C@H](CO)NC(=O)[C@H](C(C)C)NC(=O)[C@H](CC(C)C)NC(=O)[C@H](CC(N)=O)NC(=O)[C@@H](C)NC(=O)[C@H](C)N(C)C(=O)[C@H](C(C)C)NC(=O)[C@H](Cc2ccc(-c3ccccc3)cc2)NC1=O [Compound 1561] ({CH2CO}-[Dap][4Pal]DWL[Bip]V[NMeA][dA]NLVSCA-NH2; thioether N-14) |
| 0.02 | CC(C)C[C@@H]1NC(=O)[C@H](Cc2c[nH]c3ccccc23)NC(=O)[C@H](CC(=O)O)NC(=O)[C@H](Cc2ccc(OCC(=O)O)cc2)NC(=O)[C@H](Cc2ccncc2)NC(=O)CSC[C@@H](C(=O)N[C@@H](C)C(N)=O)NC(=O)[C@H](CO)NC(=O)[C@H](C(C)C)NC(=O)[C@H](CC(C)C)NC(=O)[C@H](CC(N)=O)NC(=O)[C@@H](C)NC(=O)[C@H](C)N(C)C(=O)[C@H](C(C)C)NC(=O)[C@H](Cc2ccc(-c3ccccc3)cc2)NC1=O [Compound 1563] ({CH2CO}-[4Pal]Y(Carboxymethyl)DWL[Bip]V[NMeA][dA]NLVSCA-NH2; thioether N-14) |
| 0.01 | CC(C)C[C@@H]1NC(=O)[C@H](Cc2c[nH]c3ccccc23)NC(=O)[C@H](CC(=O)O)NC(=O)[C@H](Cc2ccncc2)NC(=O)[C@H](Cc2ccc(OCC(=O)O)cc2)NC(=O)CSC[C@@H](C(=O)N[C@@H](C)C(N)=O)NC(=O)[C@H](CO)NC(=O)[C@H](C(C)C)NC(=O)[C@H](CC(C)C)NC(=O)[C@H](CC(N)=O)NC(=O)[C@@H](C)NC(=O)[C@H](C)N(C)C(=O)[C@H](C(C)C)NC(=O)[C@H](Cc2ccc(-c3ccccc3)cc2)NC1=O [Compound 1564] ({CH2CO}-Y(Carboxymethyl)[4Pal]DWL[Bip]V[NMeA][dA]NLVSCA-NH2; thioether N-14) |
| 0.01 | CC(C)C[C@@H]1NC(=O)[C@H](CCN)NC(=O)[C@@H](CC(C)C)NC(=O)[C@H](C)N(C)C(=O)[C@H](C(C)C)NC(=O)[C@H](Cc2ccc(-c3ccccc3)cc2)NC(=O)[C@H](C(C)C)NC(=O)[C@H](Cc2c[nH]c3ccccc23)NC(=O)[C@H](CC(=O)O)NC(=O)[C@H](Cc2ccc(OCC(=O)O)cc2)NC(=O)[C@H](Cc2ccncc2)NC(=O)CSC[C@@H](C(=O)N[C@@H](C)C(N)=O)NC(=O)[C@H]([C@@H](C)O)NC(=O)[C@H](C(C)C)NC1=O [Compound 1565] ({CH2CO}-[4Pal]Y(Carboxymethyl)DWV[Bip]V[NMeA][dL][Dab]LVTCA-NH2; thioether N-14) |
| 0.04 | CC(C)C[C@@H]1NC(=O)[C@H](CCN)NC(=O)[C@@H](CC(C)C)NC(=O)[C@H](C)N(C)C(=O)[C@H](CCCNC(N)=O)NC(=O)[C@H](Cc2ccc(-c3ccccc3)cc2)NC(=O)[C@H](C(C)C)NC(=O)[C@H](Cc2c[nH]c3ccccc23)NC(=O)[C@H](CC(=O)O)NC(=O)[C@H](Cc2ccc(OCC(=O)O)cc2)NC(=O)[C@H](CN)NC(=O)CSC[C@@H](C(=O)N[C@@H](C)C(N)=O)NC(=O)[C@H]([C@@H](C)O)NC(=O)[C@H](C(C)C)NC1=O [Compound 1566] ({CH2CO}-[Dap]Y(Carboxymethyl)DWV[Bip][Cit][NMeA][dL][Dab]LVTCA-NH2; thioether N-14) |
| 0.02 | CC(C)C[C@@H]1NC(=O)[C@H](CCN)NC(=O)[C@@H](CC(C)C)NC(=O)[C@H](C)N(C)C(=O)[C@H](C(C)C)NC(=O)[C@H](Cc2ccc(-c3ccccc3)cc2)NC(=O)[C@H](C(C)C)NC(=O)[C@H](Cc2c[nH]c3ccccc23)NC(=O)[C@H](CC(=O)O)NC(=O)[C@H](Cc2ccc(OCC(=O)O)cc2)NC(=O)[C@H](Cc2ccc(OCC(=O)O)cc2)NC(=O)CSC[C@@H](C(=O)N[C@@H](C)C(N)=O)NC(=O)[C@H]([C@@H](C)O)NC(=O)[C@H](C(C)C)NC1=O [Compound 1567] ({CH2CO}-Y(Carboxymethyl)Y(Carboxymethyl)DWV[Bip]V[NMeA][dL][Dab]LVTCA-NH2; thioether N-14) |
| 0.01 | CC[C@H](C)[C@@H]1NC(=O)[C@H](Cc2ccc(-c3ccccc3)cc2)NC(=O)[C@H](C(C)C)NC(=O)[C@H](Cc2c[nH]c3ccccc23)NC(=O)[C@H](CC(=O)O)NC(=O)[C@H](Cc2ccc(OCC(=O)O)cc2)NC(=O)[C@H](Cc2ccc(OCC(=O)O)cc2)NC(=O)CSC[C@@H](C(=O)N[C@@H](C)C(N)=O)NC(=O)[C@H]([C@@H](C)O)NC(=O)[C@H](C(C)C)NC(=O)[C@H](CC(C)C)NC(=O)[C@H](CCN)NC(=O)[C@@H](CC(C)C)NC(=O)[C@H](C)N(C)C1=O [Compound 1568] ({CH2CO}-Y(Carboxymethyl)Y(Carboxymethyl)DWV[Bip]I[NMeA][dL][Dab]LVTCA-NH2; thioether N-14) |
| 0.04 | CC(C)C[C@@H]1NC(=O)[C@H](CCN)NC(=O)[C@@H](CC(C)C)NC(=O)[C@H](C)N(C)C(=O)[C@H](CCCNC(N)=O)NC(=O)[C@H](Cc2ccc(-c3ccccc3)cc2)NC(=O)[C@H](C(C)C)NC(=O)[C@H](Cc2c[nH]c3ccccc23)NC(=O)[C@H](CC(=O)O)NC(=O)[C@H](Cc2ccc(OCC(=O)O)cc2)NC(=O)[C@H](Cc2ccc(OCC(=O)O)cc2)NC(=O)CSC[C@@H](C(=O)N[C@@H](C)C(N)=O)NC(=O)[C@H]([C@@H](C)O)NC(=O)[C@H](C(C)C)NC1=O [Compound 1569] ({CH2CO}-Y(Carboxymethyl)Y(Carboxymethyl)DWV[Bip][Cit][NMeA][dL][Dab]LVTCA-NH2; thioether N-14) |

Source: patent US20240409585A1, “MACROCYCLIC IMMUNOMODULATORS” (priority 2021, published 2024)
